Data reported in US8183230B2, “Antimicrobial preservatives to achieve multi-dose formulation using beta-cyclodextrins for liquid dosage forms” (priority 2004, dated 2012).

Columns and labels:
[1] = Solubility analysis (solubility method) for binding constant with SBE-CD
Protocol: Traditional solubility methods were performed initially to determine the solubility and binding constants of compound of Formula Ia and preservative with SBE-CD.
Binding was calculated for meta-cresol using solubility analysis. The experiment was performed at different concentrations of compound of Formula Ia to determine if there was any effect from the presence of drug in solution on the meta-cresol binding constant. Meta-cresol solubility was measured in excess (saturated) meta-cresol and the equilibrium binding constant was calculated using the following equation:
[formula] Where St is the total solubility of meta-cresol, s0 is the inherent solubility of meta-cresol, Lt is the total concentration of SBE-CD (ligand) and K11 is the equilibrium binding constant of meta-cresol assuming a 1 to 1 binding stoichiometry.

[2] = Equilibrium dialysis method for determining binding constants
Text: In the present invention, the method to determine binding constants utilizes equilibrium dialysis in the development of a multi-use parenteral formulation containing SBE-CD and a preservative. In particular, the method was applied in developing a parenteral formulation comprising the compound of Formula Ia, a cyclodextrin (SBE-CD) and a preservative (meta-cresol). This approach is applicable to compounds other than the compound of Formula Ia in developing parenteral formulations and is within the scope of this invention. […] The significance of this procedure is its ability to measure the binding constant of multiple compounds competing for binding with the cyclodextrin. The experimental dialysis data also provides an easily interpreted representation of binding in the formulation by visualizing the degree of interaction by the equilibrium established following dialysis.
Equilibrium dialysis permits calculation of binding constants by modeling the resultant diffusion rate across a semi-permeable membrane with an equilibrium end point. Equilibrium dialysis is performed by allowing the substrate in a solution containing bound substrate and ligand in a donor compartment of an equilibrium dialysis apparatus (cell) to equilibrate over time with an acceptor compartment. Ono, N., Hirayama, F., Arima, H., Uekama, K. “Determination of Stability Constant of β-Cyclodextrin Complexes Using the Membrane Permeation Technique and the Permeation Behavior of Drug Competing Agent-β-Cyclodextrin Ternary Systems” Eur. J. Pharm. Sci. 1999 9:133-139. The acceptor cell contains no ligand. The membrane is semi-permeable allowing the typically low molecular weight substrates to freely diffuse, while the cyclodextrin (MW=2163) remains in the donor compartment. Sampling from both compartments over time yields a time-concentration profile of substrate in both the donor and acceptor compartments of the dialysis cell.
A mathematical model describing the diffusion rate of drug across the membrane can be derived for systems containing two or more components in solution. The dialysis rate and binding constant for the substrates are obtained by resolving the equation using nonlinear curve fitting software. Depending on the interactions between the components it is possible to describe the competitive binding that occurs in the solution. The equilibrium binding constant is a measure of the relative concentration of meta-cresol bound to SBE-CD according to the chemical equilibrium equation below: S=meta-cresol, L=SBE-CD. S:L indicates the complex formed between meta-cresol and SBE-CD.
The initial experiments established the equilibrium dialysis flux rates for compound of Formula Ia and meta-cresol across the 500 MWCO dialysis membrane. Three different concentrations of compound of Formula Ia were initially loaded into the donor side of the dialysis well. Samples were withdrawn at various time intervals and concentration of free component was measured using HPLC. […] The smoothed line was a fit to the data using the model for a unitary system presented in the discussion. The equilibrium point for all these control experiments was reached after 50% of the total drug was distributed uniformly across the donor and acceptor sides of the well. This asymptotic approach to equilibrium was modeled and the dialysis rates were calculated, Table II.
The primary method of analyzing the data was to perform calculations from equilibrium dialysis data, as described below. In particular, the rate of diffusion across the membrane was calculated using the following equations:
The rate of diffusion from the donor phase is defined by the following relationship: [D]t−[D]eq=([D]0−[D]eq)e^(−2kt) (1)
Rate of diffusion into the Acceptor Phase: [D]eq−[D]t=[D]eqe^(−2kt) (2) wherein
The basis of calculation in the presence of SBE-CD is to assume that complexation occurs only in the donor phase according to the standard complexation reaction:
The value for CyDF may be substituted into equation 8. […]

[3] = Stability measurements (accelerated stability); settings: 3 mg/mL meta-cresol, 100 mg/mL SBE-CD, 10 mgA/mL compound of Formula Ia
Protocol: Stability Measurements. Potential lead formulations were evaluated under various accelerated stability conditions in order to assess potency and purity of compound of Formula Ia, preservative content and SBE-CD content. For example, in one accelerated stability study, potential lead formulations were placed in stability ovens to measure short-term thermal stability. […] Purity and potency assays to measure compound of Formula Ia, as well as antimicrobial preservatives and SBE-CD content, were performed using validated HPLC methodology. SBE-CD was assayed using GTP 5984.

[4] = Calculated non-sequestered concentrations in formulations; settings: preferred formulation: 10 mgA/mL compound, 63 mg/mL SBE-CD, 3.3 mg/mL meta-cresol, pH 4.4
Text: These constants were used to calculate the concentration of non-sequestered meta-cresol in the formulations tested for anti-microbial efficacy.
The appearance of a plateau at the higher concentrations is only due to the limitation in the bactericidal efficacy measurement method. As the method consists in evaluating the population not killed by the preservative, when the whole population is dead (i.e. none is detectable any more ˜100%) the figure quoted is of the form: a log reduction greater than a value usually between 3 and 5.
The formulations were analyzed for preservative effectiveness.

[5] = binary, approximate ratio 1:1, Compound of Formula Ia 1.0, SBE-CD 1.0 mM
[6] = binary, approximate ratio 1:2, Compound of Formula Ia 0.5, SBE-CD 1.0 mM
[7] = binary, approximate ratio 1:4, Compound of Formula Ia 0.25, SBE-CD 1.0 mM
[8] = ternary, approximate ratio 1:1, Compound of Formula Ia 1.0, Meta-cresol 1.0 mM, SBE-CD 1.0 mM
[9] = ternary, approximate ratio 1:2, Compound of Formula Ia 0.5, Meta-cresol 0.5 mM, SBE-CD 1.0 mM
[10] = ternary, approximate ratio 1:4, Compound of Formula Ia 0.25, Meta-cresol 0.25 mM, SBE-CD 1.0 mM

Which “binding constant with SBE-CD” value [1] does the source give for `COc1ccc(C(C)(C)C)cc1CN[C@H]1C2CCN(CC2)[C@H]1C(c1ccccc1)c1ccccc1` [compound of Formula Ia] here?
Its value is 1040 M⁻¹.

What about the binding constant ([1]; pH 4.4) of the same compound?
Its binding constant is 1040 M⁻¹.

What about the “drug binding constant greater than preservative” value ([2]; binary systems with SBE-CD) of the same compound?
Its value is 13 fold.

What about the Keq [2, 5] of the same compound?
Its Keq is 740 M⁻¹.

And the k [2, 5]?
The k was 0.015 h⁻¹.

What about the Keq [2, 6] of the same compound?
The Keq was 1092 M⁻¹.

What about the k [2, 6] of the same compound?
The k was 0.013 h⁻¹.

And the Keq [2, 7]?
Its Keq is 1444 M⁻¹.

And the k [2, 7]?
Its k is 0.012 h⁻¹.

And the “binding constant with SBE-CD” value ([2]; equilibrium dialysis method, binary systems, drug ±352 M−1, n=3, preservative ±7 M−1)?
The value was 1092 M⁻¹.

What about the Keq [2, 8] of the same compound?
Its Keq is 690 M⁻¹.

What about the k [2, 8] of the same compound?
Its k is 0.018 h⁻¹.

And the Keq [2, 9]?
The Keq was 720 M⁻¹.

And the k [2, 9]?
The k was 0.013 h⁻¹.

What about the Keq [2, 10] of the same compound?
Its Keq is 520 M⁻¹.

What about the k [2, 10] of the same compound?
Its k is 0.011 h⁻¹.

And the “CONTENT (% INTENT)” value ([3]; 5° C., 1 week, Amber-Treated)?
Its value is 97 % INTENT.

And the “CONTENT (% INTENT)” value ([3]; 5° C., 1 week, Amber-Untreated)?
The value was 96 % INTENT.

And the “CONTENT (% INTENT)” value ([3]; 5° C., 3 weeks, Amber-Treated)?
The value was 96 % INTENT.

And the “CONTENT (% INTENT)” value ([3]; 5° C., 3 weeks, Amber-Untreated)?
Its value is 95 % INTENT.

What about the “CONTENT (% INTENT)” value ([3]; 5° C., 6 weeks, Amber-Treated) of the same compound?
The value was 95 % INTENT.

And the “CONTENT (% INTENT)” value ([3]; 5° C., 6 weeks, Amber-Untreated)?
The value was 94 % INTENT.

What about the “CONTENT (% INTENT)” value ([3]; 5° C., 12 weeks, Amber-Treated) of the same compound?
Its value is 94 % INTENT.

And the “CONTENT (% INTENT)” value ([3]; 5° C., 12 weeks, Amber-Untreated)?
Its value is 94 % INTENT.

What about the “CONTENT (% INTENT)” value ([3]; 50° C., 1 week, Amber-Treated) of the same compound?
The value was 95 % INTENT.

What about the “CONTENT (% INTENT)” value ([3]; 50° C., 1 week, Amber-Untreated) of the same compound?
The value was 96 % INTENT.

What about the “CONTENT (% INTENT)” value ([3]; 50° C., 3 weeks, Amber-Treated) of the same compound?
The value was 95 % INTENT.

And the “CONTENT (% INTENT)” value ([3]; 50° C., 3 weeks, Amber-Untreated)?
The value was 93 % INTENT.

And the “CONTENT (% INTENT)” value ([3]; 50° C., 6 weeks, Amber-Treated)?
Its value is 96 % INTENT.

And the “CONTENT (% INTENT)” value ([3]; 50° C., 6 weeks, Amber-Untreated)?
Its value is 94 % INTENT.

What about the “CONTENT (% INTENT)” value ([3]; 50° C., 12 weeks, Amber-Treated) of the same compound?
Its value is 95 % INTENT.

What about the “CONTENT (% INTENT)” value ([3]; 70° C., 1 week, Amber-Treated) of the same compound?
Its value is 94 % INTENT.

What about the “CONTENT (% INTENT)” value ([3]; 70° C., 1 week, Amber-Untreated) of the same compound?
Its value is 94 % INTENT.

What about the “CONTENT (% INTENT)” value ([3]; 70° C., 2 weeks, Amber-Treated) of the same compound?
The value was 94 % INTENT.

And the “CONTENT (% INTENT)” value ([3]; 70° C., 2 weeks, Amber-Untreated)?
Its value is 94 % INTENT.

What about the “CONTENT (% INTENT)” value ([3]; 70° C., 3 weeks, Amber-Treated) of the same compound?
The value was 92 % INTENT.

What about the “CONTENT (% INTENT)” value ([3]; 70° C., 3 weeks, Amber-Untreated) of the same compound?
The value was 94 % INTENT.

What about the “CONTENT (% INTENT)” value ([3]; 70° C., 6 weeks, Amber-Treated) of the same compound?
Its value is 92 % INTENT.

And the “CONTENT (% INTENT)” value ([3]; 70° C., 6 weeks, Amber-Untreated)?
The value was 93 % INTENT.

And the “CONTENT (% INTENT)” value ([3]; 70° C., 12 weeks, Amber-Treated)?
Its value is 93 % INTENT.

What about the “CONTENT (% INTENT)” value ([3]; 70° C., 12 weeks, Amber-Untreated) of the same compound?
Its value is 93 % INTENT.

What about the “CONTENT (% INTENT)” value ([3]; ICH Photostability, 1X ICH UV/FI, Amber-Treated) of the same compound?
Its value is 92 % INTENT.

And the “CONTENT (% INTENT)” value ([3]; ICH Photostability, 1X ICH UV/FI, Amber-Untreated)?
Its value is 93 % INTENT.

What about the “loss / potency decrease” value ([3]; after 12 weeks at 70° C., relative to 1 week at 5° C.) of the same compound?
Its value is 3%.

What about the calculated non-sequestered concentration [4] of the same compound?
The calculated non-sequestered concentration was 1.4 mg/mL.
